Test [1] has as its system Wnt activity (Sp5-Luc reporter, TCF/LEF binding sites) in SW480 colon carcinoma cells. As to the kind of experiment: Screening assay for Wnt activity: Sp5-Luc reporter gene assay in stably transduced SW480 colon carcinoma cells. The format is cell-based. The conditions noted are these: Homo sapiens, overnight incubation, 10-point curve from 10 μM. The method in brief:
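SW480 cells stably transduced with a luciferase reporter driven by an Sp5 promoter of eight TCF/LEF sites were plated at 4,000 cells/well in 1% FBS medium. They were exposed overnight at 37° C to a 10-point 1:3 dilution series from 10 μM (0.1% DMSO). Luminescence was normalized to DMSO for four-parameter EC50, or percent inhibition at 10 μM.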
(In general: A reporter such as luciferase makes a cellular process visible.)

Test [2] concerns primary human mesenchymal stem cells (hMSCs). Kind of test: Induction of chondrogenesis in primary human mesenchymal stem cells (nodule imaging, Rhodamine B / Nile Red). The format is cell-based. The conditions noted are these: for EC50: concentration required to induce 50% levels of chondrogenesis vs TGF-β3 positive control, read-out: Conc (nM) of 50% TGF-β3 activity; for Emax: maximum chondrogenesis activity relative to TGF-β3 (10 ng/mL) positive control, read-out: Max. Activity as % TGF-β3 activity. As for the experimental part:
Representative compounds were screened using primary human mesenchymal stem cells (hMSCs) to determine their ability to induce chondrogenesis (process by which cartilage is developed).
Primary human mesenchymal stem cells (hMSCs) were purchased from Lonza (Walkersville, Md.) and expanded in Mesenchymal Stem Cell Growth Media (Lonza). Cells between passage 3 and 6 were used for the experiments.
Each compound was dissolved in DMSO as a 10 mM stock and used to prepare compound source plates. For the 96 well assay, serial dilution (1:3, 6-point dose-response curves from 2700 nM to 10 nM) and compound transfer was performed using the ECHO 550 (Labcyte, Sunnyvale, Calif.) into 96-well clear bottom assay plates (Greiner Bio-One) with appropriate DMSO backfill for a final DMSO concentration of 0.03%. hMSCs were plated at 20,000 cells/well in 250 μL/well Incomplete Chondrogenic Induction Medium (Lonza; DMEM, dexamethasone, ascorbate, insulin-transferrin-selenium [ITS supplement], gentamycin-amphotericin [GA-1000], sodium pyruvate, proline and L-glutamine). TGF-β3 (10 ng/mL) was used as a positive control for differentiation while negative control wells were treated with 75 nL DMSO for normalization and calculating EC50 values. For the 384 well assay, serial dilution (1:3, 8-point dose-response curves from 5000 nM to 2.2 nM) and compound transfer was performed using the ECHO 550 (Labcyte, Sunnyvale, Calif.) into 384-well clear bottom assay plates (Greiner Bio-One) with appropriate DMSO backfill for a final DMSO concentration of 0.03%. hMSCs were plated at 8,000 cells/well in 80 μL/well Incomplete Chondrogenic Induction Medium (Lonza; DMEM, dexamethasone, ascorbate, insulin-transferrin-selenium [ITS supplement], gentamycin-amphotericin [GA-1000], sodium pyruvate, proline and L-glutamine). TGF-β3 (10 ng/mL) was used as a positive control for differentiation while negative control wells were treated with 25 nL DMSO for normalization and calculating EC50 values. Cells were incubated at 37° C. and 5% CO2 for 6 days. To image chondrogenic nodules, the cells were fixed using 4% formaldehyde (Electron Microscopy Sciences), and stained with 2 μg/mL Rhodamine B (Sigma-Aldrich) and 20 μM Nile Red (Sigma-Aldrich) [Johnson K., et. al, A Stem CellBased Approach to Cartilage Repair, Science, (2012), 336(6082), 717-721]. The nodules imaged (25 images per well for 96 well plates and 9 images per well for 384 well plates at 10× magnification) by excitation at 531 nm and emission at 625 nm and quantified using the CellInsight CX5 (Thermo Scientific). Area of nodules in each well was normalized to the average of 3 DMSO treated wells on the same plate using Excel (Microsoft Inc.). The normalized averages (fold change over DMSO) of 2 or 3 replicate wells for each compound concentration were calculated. Due to solubility limitations of some of the compounds, curve fitting was incomplete leading to inaccurate EC50 determinations.
Using TGF-β3 as a positive control, the concentration of representative compounds required to induce 50% levels of chondrogenesis is reported. In addition, the maximum activity of each compound and the respective dose that each compound reached maximum chondrogenesis activity is reported.

For the compound `Nc1cncc(-c2ccc3[nH]nc(-c4cc5c(-c6ccccn6)cccc5[nH]4)c3c2)c1` [Compound 143, 5-(3-(4-(Pyridin-2-yl)-1H-indol-2-yl)-1H-indazol-5-yl)pyridin-3-amine], the EC50 in test [1] was found to be 0.06 µM; in test [2], 10 nM. For the same compound, the Emax in test [2] came to 224%.

On to `CCNCc1cncc(-c2ccc3[nH]nc(-c4cc5c(-c6ccncc6)cccc5[nH]4)c3c2)c1` [Compound 118, N-((5-(3-(4-(Pyridin-4-yl)-1H-indol-2-yl)-1H-indazol-5-yl)pyridin-3-yl)methyl)ethanamine], for which the figures for the EC50 in test [1] and in test [2] were 1.44 µM and 30 nM, respectively. Moreover, the Emax in test [2] was 199%.

On to `O=C(Nc1cncc(-c2ccc3[nH]nc(-c4cc5c(-c6ccncc6)cccc5[nH]4)c3c2)c1)C1CC1` [Compound 132, N-(5-(3-(4-(Pyridin-4-yl)-1H-indol-2-yl)-1H-indazol-5-yl)pyridin-3-yl) cyclopropanecarboxamide], for which the EC50 in test [1] came out at 0.135 µM. Moreover, in test [2], the EC50 turned out to be 10 nM and the Emax is 219%.

Consider `CN1CCN(c2cccc3[nH]c(-c4n[nH]c5ccc(-c6cncc(NC(=O)C7CCCC7)c6)cc45)cc23)CC1` [Compound 246, N-(5-(3-(4-(4-Methylpiperazin-1-yl)-1H-indol-2-yl)-1H-indazol-5-yl)pyridin-3-yl)cyclopentanecarboxamide], for which the EC50 in test [1] is 1.25 µM. For the same compound, in test [2], the EC50 was found to be 100 nM and the Emax is 185%.

For the compound `c1ccc2[nH]c(-c3n[nH]c4ccc(-c5cncc(CN6CCCC6)c5)cc34)cc2c1` [Compound 266, 3-(1H-Indol-2-yl)-5-(5-(pyrrolidin-1-ylmethyl)pyridin-3-yl)-1H-indazole], the EC50 in test [1] worked out at 0.36 µM. In test [2], the EC50 stood at 100 nM and the Emax came to 217%.

In test [1], `CC(C)C(=O)Nc1cncc(-c2ccc3[nH]nc(-c4cc5c(-c6cccnc6)cccc5[nH]4)c3c2)c1` [Compound 93, N-(5-(3-(4-(Pyridin-3-yl)-1H-indol-2-yl)-1H-indazol-5-yl)pyridin-3-yl) isobutyramide] returned an EC50 of 0.085 µM. In addition, in test [2], the EC50 amounted to 30 nM and the Emax is 199%.

In turn, `CN(C)Cc1cncc(-c2ccc3[nH]nc(-c4cc5c(N6CCCCC6)cccc5[nH]4)c3c2)c1` [Compound 181, N,N-Dimethyl-1-(5-(3-(4-(piperidin-1-yl)-1H-indol-2-yl)-1H-indazol-5-yl)pyridin-3-yl)methanamine] yielded an EC50 in test [1] of 0.575 µM. Moreover, in test [2], the EC50 stood at 10 nM and the Emax was 205%.

For the compound `CN(C)Cc1cncc(-c2ccc3[nH]nc(-c4cc5c(-c6ccncc6)cccc5[nH]4)c3c2)c1` [Compound 125, N,N-dimethyl-1-(5-(3-(4-(Pyridin-4-yl)-1H-indol-2-yl)-1H-indazol-5-yl)pyridin-3-yl)methanamine], the figures for the EC50 in test [1] and in test [2] were 0.275 µM and 30 nM, respectively. Moreover, in test [2], the Emax was found to be 191%.

For `CN1CCN(c2cccc3[nH]c(-c4n[nH]c5ccc(-c6cncc(CN7CCCCC7)c6)cc45)cc23)CC1` [Compound 239, 3-(4-(4-Methylpiperazin-1-yl)-1H-indol-2-yl)-5-(5-(piperidin-1-ylmethyl)pyridin-3-yl)-1H-indazole], the EC50 was determined as 4.97 µM in test [1] and 100 nM in test [2]. Moreover, the Emax in test [2] was 198%.

With `CC(C)C(=O)Nc1cncc(-c2ccc3[nH]nc(-c4cc5c(N6CCN(C)CC6)cccc5[nH]4)c3c2)c1` [Compound 233, N-(5-(3-(4-(4-Methylpiperazin-1-yl)-1H-indol-2-yl)-1H-indazol-5-yl)pyridin-3-yl)isobutyramide], in test [1], the EC50 stood at 0.565 µM. In test [2], the EC50 came out at 100 nM and the Emax stood at 196%.

Compound `c1ccc(-c2cccc3[nH]c(-c4n[nH]c5ccc(-c6cncc(CN7CCCC7)c6)cc45)cc23)nc1` [Compound 154, 3-(4-(Pyridin-2-yl)-1H-indol-2-yl)-5-(5-(pyrrolidin-1-ylmethyl)pyridin-3-yl)-1H-indazole] had an EC50 in test [1] of 0.49 µM. Besides, in test [2], the EC50 was found to be 10 nM and the Emax was determined as 180%.

In the case of `CS(=O)(=O)NCc1cc(F)cc(-c2cccc3[nH]c(-c4n[nH]c5ccc(-c6cncnc6)cc45)cc23)c1` [Compound 503, N-(3-Fluoro-5-(2-(5-(pyrimidin-5-yl)-1H-indazol-3-yl)-1H-indol-4-yl)benzyl) methanesulfonamide], in test [1], the EC50 came to 0.205 µM. Also, in test [2], the EC50 turned out to be 10 nM and the Emax was 194%.

For the compound `CCNCc1cncc(-c2ccc3[nH]nc(-c4cc5ccccc5[nH]4)c3c2)c1` [Compound 258, N-((5-(3-(1H-Indol-2-yl)-1H-indazol-5-yl)pyridin-3-yl)methyl)ethanamine], the EC50 in test [1] was 0.415 µM. Further, in test [2], the EC50 turned out to be 10 nM and the Emax was 532%.

Compound `c1cncc(-c2ccc3[nH]nc(-c4cc5ccccc5[nH]4)c3c2)c1` [Compound 256, 3-(1H-Indol-2-yl)-5-(pyridin-3-yl)-1H-indazole] came in with an EC50 in test [1] of 0.018 µM. In test [2], the EC50 was 10 nM and the Emax was found to be 162%.

For `c1cncc(-c2ccc3[nH]nc(-c4cc5c(-c6cccnc6)cccc5[nH]4)c3c2)c1` [Compound 88, 5-(Pyridin-3-yl)-3-(4-(pyridin-3-yl)-1H-indol-2-yl)-1H-indazole], in test [1], the EC50 amounted to 0.5 µM. Further, in test [2], the EC50 was found to be 10 nM and the Emax is 183%.

`Fc1ccc(-c2cccc3[nH]c(-c4n[nH]c5ccc(-c6cncc(CN7CCCC7)c6)cc45)cc23)cc1` [Compound 42, 3-(4-(4-Fluorophenyl)-1H-indol-2-yl)-5-(5-(pyrrolidin-1-ylmethyl)pyridin-3-yl)-1H-indazole] gave an EC50 in test [1] of 0.845 µM. Also, in test [2], the EC50 amounted to 30 nM and the Emax is 197%.

In the case of `CN1CCN(c2cccc3[nH]c(-c4n[nH]c5ccc(-c6cncc(N)c6)cc45)cc23)CC1` [Compound 227, 5-(3-(4-(4-Methylpiperazin-1-yl)-1H-indol-2-yl)-1H-indazol-5-yl)pyridin-3-amine], the EC50 in test [1] was found to be 0.474 µM. In test [2], the EC50 worked out at 100 nM and the Emax was determined as 166%.

In test [1], `Nc1cncc(-c2ccc3[nH]nc(-c4cc5c(-c6ccccc6F)cccc5[nH]4)c3c2)c1` [Compound 59, 5-(3-(4-(2-Fluorophenyl)-1H-indol-2-yl)-1H-indazol-5-yl)pyridin-3-amine] registered an EC50 of 0.053 µM. Also, in test [2], the EC50 is 10 nM and the Emax amounted to 197%.

For the compound `c1ccc(-c2cccc3[nH]c(-c4n[nH]c5ccc(-c6cncnc6)cc45)cc23)nc1` [Compound 167, 3-(4-(Pyridin-2-yl)-1H-indol-2-yl)-5-(pyrimidin-5-yl)-1H-indazole], the EC50 in test [1] was 1.22 µM. In test [2], the EC50 is 10 nM and the Emax came out at 203%.

Consider `CCC(=O)Nc1cncc(-c2ccc3[nH]nc(-c4cc5c(-c6cccnc6)cccc5[nH]4)c3c2)c1` [Compound 85, N-(5-(3-(4-(Pyridin-3-yl)-1H-indol-2-yl)-1H-indazol-5-yl)pyridin-3-yl) propionamide], for which the EC50 in test [1] was determined as 0.065 µM. Besides, in test [2], the EC50 amounted to 10 nM and the Emax came to 197%.

`CN(C)Cc1cncc(-c2ccc3[nH]nc(-c4cc5c(-c6cccs6)cccc5[nH]4)c3c2)c1` [Compound 349, N,N-Dimethyl-1-(5-(3-(4-(thiophen-2-yl)-1H-indol-2-yl)-1H-indazol-5-yl)pyridin-3-yl)methanamine] registered an EC50 in test [1] of 0.169 µM. In test [2], the EC50 is 30 nM and the Emax was determined as 181%.
